The values below are quoted from earlier work in patent publication US20250074936A1, “A PROCESS FOR ISOLATION OF SAPONINS UTTROSIDE B AND UTTROSIDE A FROM SOLANUM NIGRUM LINN” (COUNCIL OF SCIENTIFIC AND INDUSTRIAL RESEARCH AN INDIAN …, priority 2022, published 2025).

The test system of data set [1] is HeLa cells. As to conditions: read-out: moderate cytotoxicity against HeLa cells, IC50.
Data set [2] relates to PC-12. As to conditions: PC-12 cells; read-out: cytotoxicity towards PC-12, IC50.
Data set [3] has as its system HCT-16. The following applies: HCT-16 cells; read-out: cytotoxicity towards HCT-16, IC50.

For the compound `CO[C@]1(CC[C@@H](C)COC2OC(CO)C(O)C(O)C2O)OC2C[C@H]3[C@@H]4CC[C@H]5C[C@@H](OC6OC(CO)C(OC7OC(CO)C(O)C(OC8OCC(O)C(O)C8O)C7OC7OC(CO)C(O)C(O)C7O)C(O)C6O)CC[C@]5(C)[C@H]4CC[C@]3(C)C2[C@@H]1C` (stereo partly drawn) [uttroside A], in data set [1], the IC50 was 15400 nM. On to `C[C@H](CC[C@@]1(O)OC2C[C@H]3[C@@H]4CC[C@H]5C[C@@H](OC6OC(CO)C(OC7OC(CO)C(O)C(OC8OCC(O)C(O)C8O)C7OC7OC(CO)C(O)C(O)C7O)C(O)C6O)CC[C@]5(C)[C@H]4CC[C@]3(C)C2[C@@H]1C)COC1OC(CO)C(O)C(O)C1O` (stereo partly drawn) [uttroside B], for which the values for the IC50 in data set [2] and in data set [3] were 1200 nM and 2330 nM, respectively.
